Molecules are shown by their SMILES.

This note sets out measurements from PubChem BioAssay AID1924 (Vanderbilt High Throughput Screening Facility, 2009).

The subject of this assay is Vesicular inhibitory amino acid transporter (Rattus norvegicus) + Acetylcholine receptor subunit alpha (Homo sapiens) + Estrogen receptor (Homo sapiens) + Glucocorticoid receptor (Homo sapiens) + Sodium channel protein type 1 subunit alpha (Rattus norvegicus) + Beta-2 adrenergic receptor (Homo sapiens) + Muscarinic acetylcholine receptor M2 (Homo sapiens) + Beta-1 adrenergic receptor (Homo sapiens) + 5-hydroxytryptamine receptor 1A (Homo sapiens) + Alpha-2A adrenergic receptor (Homo sapiens) + Muscarinic acetylcholine receptor M1 (Homo sapiens) + Interleukin-1 receptor type 1 (Mus musculus) + D(2) dopamine receptor (Homo sapiens) + Androgen receptor (Rattus norvegicus) + Gamma-aminobutyric acid receptor subunit gamma-2 (Rattus norvegicus) + Muscarinic acetylcholine receptor M3 (Homo sapiens) + D(1A) dopamine receptor (Homo sapiens) + D(4) dopamine receptor (Homo sapiens) + Glutamate receptor ionotropic, kainate 1 (Rattus norvegicus) + Sodium-dependent noradrenaline transporter (Homo sapiens) + Endothelin receptor type B (Homo sapiens) + Alpha-1D adrenergic receptor (Homo sapiens) + Endothelin-1 receptor (Homo sapiens) + Substance-P receptor (Homo sapiens) + Neuropeptide Y receptor type 1 (Homo sapiens) + Adenosine receptor A2a (Homo sapiens) + B2 bradykinin receptor (Homo sapiens) + Adenosine receptor A1 (Homo sapiens) + Sodium-dependent serotonin transporter (Homo sapiens) + Neuronal acetylcholine receptor subunit alpha-3 (Homo sapiens) + Histamine H1 receptor (Homo …. Description: broad ancillary panel percent inhibition – biochemical, MDS panel, selectivity assay for ROMK channel modulator project, profiling panel (AID 1924). The conditions noted are these: MDS Pharma lead profiling binding panel, at 10 µM, stronger effect = higher value.

By inhibition is commonly meant the drop in the measured response relative to a control, in per cent. As for `O=[N+]([O-])c1ccc2nc(COCc3nc4ccc([N+](=O)[O-])cc4[nH]3)[nH]c2c1`, the inhibition is 75%. For the same molecule, the inhibition (measured here: Adenosine A1 human binding) was found to be 14%. Where the note is “measured here: Adenosine A3 human binding”, the inhibition came out at 21%. Also, the inhibition (measured here: Adrenergic a2A human binding) was 14%. Also, the inhibition (measured here: Adrenergic b2 human binding) was determined as 9%. Where the note is “measured here: Bradykinin B2 human binding”, the inhibition was -16%. Besides, the inhibition (measured here: Calcium channel L-type BTZ rat) was determined as 22%. Moreover, for the setting “measured here: Calcium channel L-type DHP rat”, the inhibition came to 26%. Further, the inhibition (measured here: Calcium channel N-type rat) is 0%. The inhibition (measured here: Dopamine D1 human binding) was -2%. Also, the inhibition (measured here: Dopamine D2S human binding) is -6%. Where the note is “measured here: Dopamine D3 human binding”, the inhibition worked out at 1%. In addition, the inhibition (measured here: Estrogen ER alpha human binding) was 1%.
